Test results from patent US20070053950A1, “Composition of polymer microcapsules of biocide for coating material” (priority 2005, published 2007).

Columns and labels:
Format in all cases: cell-based
[1] = system: Chlorella fusca; assay: Filter paper bioassay, antialgal activity of biocide dispersed in paint; details: around 5 wt % Irgarol in paint; taken after 0, 15 and 30 days of dispersion; even after 100 days
From the text: (§1) W. et.al., Amer. J. Clin. Pathol., 45 (1966) p 493-496 and Thomberry, H. H. Phytopathology 40 (1950) p 419-420). […] The antifungal activity of all the composition samples is indicated by zone of inhibition that is developed around the filter paper discs against the vegetative growth after the spore germination. […] Similar type of results are obtained when microcapsules stored in paint for 12 days and 30 days are taken for such biocidal analysis. The antialgal activity of microencapsulated Irgarol and unencapsulated Irgarol against algal strains (Oscillatoria tenius and Chlorella fusca) is assessed by filter paper bioassay by method as described above for fungal activity. Unencpasulated Irgarol and microcapsules of Irgarol are dispersed in paint such that the concentration of Irgarol is around 5 wt % based on weight of paint and taken for analysis after 0 days, 15 days and 30 days of dispersion period.

[2] = system: Oscillatoria tenius; assay: as above; details: around 5 wt % Irgarol in paint; taken after 0, 15 and 30 days of dispersion; even after 100 days
From the text: as §1

[3] = system: fungal strain Aspergillus niger (NRRL337); assay: Filter paper bioassay, antifungal activity of biocide dispersed in paint (zone of inhibition); details: sample taken after 0 days of dispersion
Procedure: Microcapsules of Zinc Pyrithione and unencpasulated Zinc Pyrithione are dispersed in paint such that the concentration of Zinc Pyrithione is around 5 wt % based on weight of paint and taken for analysis after 0 days, 12 days and 30 days of dispersion period. The antifungal activity of all the composition samples is indicated by zone of inhibition that is developed around the filter paper discs against the vegetative growth after the spore germination. The zone of inhibition is measured after 2 days and 100 days after the day on which samples are taken for filter paper bioassay.

| Molecule | inhibitory activity against algal strain [1] | inhibitory activity against algal strain [2] | Zone of inhibition (mm) (after 2 days) A ([3]; around 5 wt % Zinc Pyrithione in paint, zone measured after 2 days) | Zone of inhibition (mm) (after 100 days) B ([3]; around 5 wt % Zinc Pyrithione in paint, zone measured after 100 days) | % Reduction in inhibition zone C = [(A − B) × 100]/A ([3]; around 5 wt % biocide in paint, from 2 days to 100 days) [%] |
| --- | --- | --- | --- | --- | --- |
| CSc1nc(NC2CC2)nc(NC(C)(C)C)n1 [unencapsulated irgarol, Irgarol] | very strong inhibitory activity | very strong inhibitory activity | – | – | – |
| Zinc Pyrithione [Unencapsulated Zinc Pyrithione] | – | – | 41 | 32 | 21.9 |
